What was measured:
Test in all cases: relative viability (nuclei count vs DMSO), 5 days (fraction); higher = more cells survive
[1] = compound: COc1cc2nc(N3CCCN(C)CC3)nc(NC3CCN(Cc4ccccc4)CC3)c2cc1OC + N=C(N)NC(=N)NCCc1ccccc1 [Phenformin] (partner 250 µM)
Summary of the method: (§1)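 A single step with final 0.05% Triton X-100, 1% formaldehyde and 1 ug/ml Hoechst fixed the cells and stained nuclei 5 days after treatment. Lung cancer cell lines in 1536-well plates had been treated by pin tool the day after seeding with one drug alone or a fixed anchor-drug dose plus five library-drug doses (not always all listed) in √10 steps, and nuclei were counted on 4× images. Relative viability is the ratio of nuclei in treated wells to nuclei in vehicle wells, taken as the median of duplicate plates.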

[2] = compound: COc1cc2nc(N3CCCN(C)CC3)nc(NC3CCN(Cc4ccccc4)CC3)c2cc1OC + O=C(CCCCCCC(=O)Nc1ccccc1)NO [Vorinostat] (partner 1 µM)
Summary of the method: as §1

AZD6482 + Lapatinib = compound: Cc1cc([C@@H](C)Nc2ccccc2C(=O)O)c2nc(N3CCOCC3)cc(=O)n2c1 [AZD6482] + CS(=O)(=O)CCNCc1ccc(-c2ccc3ncnc(Nc4ccc(OCc5cccc(F)c5)c(Cl)c4)c3c2)o1 [Lapatinib] (partner 2 µM)
Summary of the method: as §1

AZD6482 + Vorinostat = compound: Cc1cc([C@@H](C)Nc2ccccc2C(=O)O)c2nc(N3CCOCC3)cc(=O)n2c1 [AZD6482] + O=C(CCCCCCC(=O)Nc1ccccc1)NO [Vorinostat] (partner 1 µM)
Summary of the method: as §1

Row | Cell Line | relative viability ([1]; first compound 0.2 µM) | relative viability ([1]; first compound 0.6325 µM) | relative viability ([1]; first compound 2 µM) | relative viability ([1]; first compound 6.325 µM) | relative viability ([2]; first compound 0.2 µM) | relative viability ([2]; first compound 0.6325 µM) | relative viability ([2]; first compound 2 µM) | relative viability ([2]; first compound 6.325 µM) | relative viability (AZD6482 + Lapatinib; first compound 0.08 µM) | relative viability (AZD6482 + Lapatinib; first compound 0.253 µM) | relative viability (AZD6482 + Lapatinib; first compound 0.8 µM) | relative viability (AZD6482 + Lapatinib; first compound 2.53 µM) | relative viability (AZD6482 + Lapatinib; first compound 8 µM) | relative viability (AZD6482 + Vorinostat; first compound 0.08 µM) | relative viability (AZD6482 + Vorinostat; first compound 0.253 µM) | relative viability (AZD6482 + Vorinostat; first compound 0.8 µM) | relative viability (AZD6482 + Vorinostat; first compound 2.53 µM) | relative viability (AZD6482 + Vorinostat; first compound 8 µM)
1 | NCI-H460 | 0.501 | 0.492 | 0.478 | 0.484 | 0.834 | 0.72 | 0.659 | 0.603 | 0.869 | 0.796 | 1.17 | 0.585 | 0.758 | 0.599 | 0.797 | 0.895 | 0.344 | 0.594
2 | NCI-H661 | 0.295 | 0.296 | 0.27 | 0.266 | 0.763 | 0.774 | 0.833 | 0.807 | 0.531 | 0.455 | 0.393 |  | 0.369 | 0.794 | 0.825 | 0.914 | 0.736 | 0.846
3 | HCC-15 | 0.443 | 0.485 | 0.572 | 0.463 | 0.85 | 0.884 | 0.909 | 0.81 | 0.873 | 0.792 | 0.882 | 0.737 | 0.914 | 0.778 | 0.806 | 0.858 | 0.685 | 0.739
4 | ABC-1 | 0.223 | 0.2 | 0.26 | 0.319 | 0.959 | 1.23 | 1.13 | 0.917 | 1.07 | 1.16 | 1.07 | 1.03 | 0.932 | 1.11 | 0.877 | 1.01 | 0.83 | 0.986
5 | EPLC-272H | 0.353 | 0.335 | 0.318 | 0.348 | 0.423 | 0.4 | 0.38 | 0.335 | 0.812 |  | 1.01 | 0.709 | 0.673 | 0.466 | 0.397 | 0.474 | 0.256 | 0.252

— the supplement of paper PMC10307832
